Assay results as given in patent US8735609B2, “Bryostatin analogues, synthetic methods and uses” (The Board of Trustees of the Leland Stanford Junior …, priority 2007, dated 2014).

Tests used:
CCRF-CEM = test: NCI human cancer cell line growth inhibition: CCRF-CEM (Leukemia); format: cell-based
HL-60(TB) = test: cells; format: cell-based, human
K-562 = test: NCI human cancer cell line growth inhibition: K-562 (Leukemia); format: cell-based
MOLT-4 = test: NCI human cancer cell line growth inhibition: MOLT-4 (Leukemia); format: cell-based
RPMI-8226 = test: NCI human cancer cell line growth inhibition: RPMI-8226 (Leukemia); format: cell-based
SR = test: NCI human cancer cell line growth inhibition: SR (Leukemia); format: cell-based
A549/ATCC = test: NCI human cancer cell line growth inhibition: A549/ATCC (NSC Lung); format: cell-based
EKVX = test: NCI human cancer cell line growth inhibition: EKVX (NSC Lung); format: cell-based
HOP-62 = test: NCI human cancer cell line growth inhibition: HOP-62 (NSC Lung); format: cell-based
HOP-92 = test: NCI human cancer cell line growth inhibition: HOP-92 (NSC Lung); format: cell-based
NCI-H226 = format: cell-based, human; details: NCI-H226, NSC Lung
NCI-H23 = format: cell-based, human; details: NCI-H23, NSC Lung
NCI-H460 = format: cell-based, human; details: NCI-H460, NSC Lung
NCI-H522 = format: cell-based, human; details: NCI-H522, NSC Lung
COLO 205 = test: NCI human cancer cell line growth inhibition: COLO 205 (Colon); format: cell-based
HCC-2998 = test: NCI human cancer cell line growth inhibition: HCC-2998 (Colon); format: cell-based
HCT-116 = test: NCI human cancer cell line growth inhibition: HCT-116 (Colon); format: cell-based
HCT-15 = test: NCI human cancer cell line growth inhibition: HCT-15 (Colon); format: cell-based
HT29 = test: NCI human cancer cell line growth inhibition: HT29 (Colon); format: cell-based
KM12 = test: NCI human cancer cell line growth inhibition: KM12 (Colon); format: cell-based
SW-620 = test: NCI human cancer cell line growth inhibition: SW-620 (Colon); format: cell-based
SF-268 = test: NCI human cancer cell line growth inhibition: SF-268 (CNS); format: cell-based
SF-295 = test: NCI human cancer cell line growth inhibition: SF-295 (CNS); format: cell-based
SF-539 = test: NCI human cancer cell line growth inhibition: SF-539 (CNS); format: cell-based
SNB-19 = test: NCI human cancer cell line growth inhibition: SNB-19 (CNS); format: cell-based
SNB-75 = test: NCI human cancer cell line growth inhibition: SNB-75 (CNS); format: cell-based
U251 = test: NCI human cancer cell line growth inhibition: U251 (CNS); format: cell-based
PC-3 = test: NCI human cancer cell line growth inhibition: PC-3 (Prostate); format: cell-based
DU-145 = test: NCI human cancer cell line growth inhibition: DU-145 (Prostate); format: cell-based
LOX IMVI = test: NCI human cancer cell line growth inhibition: LOX IMVI (Melanoma); format: cell-based
MALME-3M = test: NCI human cancer cell line growth inhibition: MALME-3M (Melanoma); format: cell-based
MI4 = test: NCI human cancer cell line growth inhibition: MI4 (Melanoma); format: cell-based
SK-MEL-2 = test: NCI human cancer cell line growth inhibition: SK-MEL-2 (Melanoma); format: cell-based
SK-MEL-28 = test: NCI human cancer cell line growth inhibition: SK-MEL-28 (Melanoma); format: cell-based
SK-MEL-5 = test: NCI human cancer cell line growth inhibition: SK-MEL-5 (Melanoma); format: cell-based
UACC-257 = test: NCI human cancer cell line growth inhibition: UACC-257 (Melanoma); format: cell-based
UACC-62 = test: NCI human cancer cell line growth inhibition: UACC-62 (Melanoma); format: cell-based
IGROVI = test: NCI human cancer cell line growth inhibition: IGROVI (Ovarian); format: cell-based
OVCAR-3 = test: NCI human cancer cell line growth inhibition: OVCAR-3 (Ovarian); format: cell-based
OVCAR-4 = test: NCI human cancer cell line growth inhibition: OVCAR-4 (Ovarian); format: cell-based
OVCAR-5 = test: NCI human cancer cell line growth inhibition: OVCAR-5 (Ovarian); format: cell-based
OVCAR-8 = test: NCI human cancer cell line growth inhibition: OVCAR-8 (Ovarian); format: cell-based
SK-OV-3 = test: NCI human cancer cell line growth inhibition: SK-OV-3 (Ovarian); format: cell-based
786-0 = test: NCI human cancer cell line growth inhibition: 786-0 (Renal); format: cell-based
A498 = test: NCI human cancer cell line growth inhibition: A498 (Renal); format: cell-based
ACHN = test: NCI human cancer cell line growth inhibition: ACHN (Renal); format: cell-based
CAKI-1 = test: NCI human cancer cell line growth inhibition: CAKI-1 (Renal); format: cell-based
RXF-393 = test: NCI human cancer cell line growth inhibition: RXF-393 (Renal); format: cell-based
SN12C = test: NCI human cancer cell line growth inhibition: SN12C (Renal); format: cell-based
TK-10 = test: NCI human cancer cell line growth inhibition: TK-10 (Renal); format: cell-based
UO-31 = test: NCI human cancer cell line growth inhibition: UO-31 (Renal); format: cell-based
MCF7 = test: NCI human cancer cell line growth inhibition: MCF7 (Breast); format: cell-based
NCI/ADR-RES = format: cell-based, human; details: Breast
MDA-MB-231/ATCC = test: NCI human cancer cell line growth inhibition: MDA-MB-231/ATCC (Breast); format: cell-based
MDA-MB-435 = test: NCI human cancer cell line growth inhibition: MDA-MB-435 (Breast); format: cell-based
MDA-N = test: NCI human cancer cell line growth inhibition: MDA-N (Breast); format: cell-based
BT-549 = test: NCI human cancer cell line growth inhibition: BT-549 (Breast); format: cell-based
T-47D = test: NCI human cancer cell line growth inhibition: T-47D (Breast); format: cell-based
HS 578T = test: NCI human cancer cell line growth inhibition: HS 578T (Breast); format: cell-based

Compound: CCC/C=C/C=C/C(=O)O[C@H]1/C(=C/C(=O)OC)C[C@H]2C[C@H]([C@@H](C)O)OC(=O)C[C@H](O)C[C@@H]3C[C@H](OC(C)=O)C(C)(C)[C@](O)(C[C@@H]4C/C(=C/C(=O)OC)C[C@H](/C=C/C(C)(C)[C@]1(O)O2)O4)O3 [Bryo-1, Bryostatin-1, reference compound]
- Growth inhibition (GI50) (CCRF-CEM): −5.30 log of molar concentration
- Growth inhibition (GI50) (HL-60(TB)): −5.70 log of molar concentration
- Growth inhibition (GI50) (K-562): −5.40 log of molar concentration
- Growth inhibition (GI50) (MOLT-4): −5.50 log of molar concentration
- Growth inhibition (GI50) (RPMI-8226): >−5 log of molar concentration
- Growth inhibition (GI50) (SR): >−5 log of molar concentration
- Growth inhibition (GI50) (A549/ATCC): −5.20 log of molar concentration
- Growth inhibition (GI50) (EKVX): −5.30 log of molar concentration
- Growth inhibition (GI50) (HOP-62): >−5 log of molar concentration
- Growth inhibition (GI50) (HOP-92): −5.30 log of molar concentration
- Growth inhibition (GI50) (NCI-H226): >−5 log of molar concentration
- Growth inhibition (GI50) (NCI-H23): >−5 log of molar concentration
- Growth inhibition (GI50) (NCI-H460): −5.60 log of molar concentration
- Growth inhibition (GI50) (NCI-H522): >−5 log of molar concentration
- Growth inhibition (GI50) (COLO 205): −5.40 log of molar concentration
- Growth inhibition (GI50) (HCC-2998): −5.30 log of molar concentration
- Growth inhibition (GI50) (HCT-116): −5.30 log of molar concentration
- Growth inhibition (GI50) (HCT-15): >−5 log of molar concentration
- Growth inhibition (GI50) (HT29): −5.30 log of molar concentration
- Growth inhibition (GI50) (KM12): −5.20 log of molar concentration
- Growth inhibition (GI50) (SW-620): −5.50 log of molar concentration
- Growth inhibition (GI50) (SF-268): −5.10 log of molar concentration
- Growth inhibition (GI50) (SF-295): −5.20 log of molar concentration
- Growth inhibition (GI50) (SF-539): >−5 log of molar concentration
- Growth inhibition (GI50) (SNB-19): >−5 log of molar concentration
- Growth inhibition (GI50) (SNB-75): −5.50 log of molar concentration
- Growth inhibition (GI50) (U251): −5.10 log of molar concentration
- Growth inhibition (GI50) (PC-3): −5.30 log of molar concentration
- Growth inhibition (GI50) (DU-145): >−5 log of molar concentration
- Growth inhibition (GI50) (LOX IMVI): −5.10 log of molar concentration
- Growth inhibition (GI50) (MALME-3M): −5.20 log of molar concentration
- Growth inhibition (GI50) (MI4): >−5 log of molar concentration
- Growth inhibition (GI50) (SK-MEL-2): −5.20 log of molar concentration
- Growth inhibition (GI50) (SK-MEL-28): −5.10 log of molar concentration
- Growth inhibition (GI50) (SK-MEL-5): −5.70 log of molar concentration
- Growth inhibition (GI50) (UACC-257): −5.10 log of molar concentration
- Growth inhibition (GI50) (UACC-62): −5.30 log of molar concentration
- Growth inhibition (GI50) (IGROVI): −5.30 log of molar concentration
- Growth inhibition (GI50) (OVCAR-3): −5.10 log of molar concentration
- Growth inhibition (GI50) (OVCAR-4): −5.50 log of molar concentration
- Growth inhibition (GI50) (OVCAR-5): >−5 log of molar concentration
- Growth inhibition (GI50) (OVCAR-8): −5.10 log of molar concentration
- Growth inhibition (GI50) (SK-OV-3): −5.10 log of molar concentration
- Growth inhibition (GI50) (786-0): −5.20 log of molar concentration
- Growth inhibition (GI50) (A498): >−5 log of molar concentration
- Growth inhibition (GI50) (ACHN): −5.50 log of molar concentration
- Growth inhibition (GI50) (CAKI-1): −5.40 log of molar concentration
- Growth inhibition (GI50) (RXF-393): −5.30 log of molar concentration
- Growth inhibition (GI50) (SN12C): −5.10 log of molar concentration
- Growth inhibition (GI50) (TK-10): >−5 log of molar concentration
- Growth inhibition (GI50) (UO-31): −5.60 log of molar concentration
- Growth inhibition (GI50) (MCF7): −5.20 log of molar concentration
- Growth inhibition (GI50) (NCI/ADR-RES): >−5 log of molar concentration
- Growth inhibition (GI50) (MDA-MB-231/ATCC): −5.20 log of molar concentration
- Growth inhibition (GI50) (MDA-MB-435): −5.10 log of molar concentration
- Growth inhibition (GI50) (MDA-N): −5.10 log of molar concentration
- Growth inhibition (GI50) (BT-549): −5.10 log of molar concentration
- Growth inhibition (GI50) (T-47D): −5.20 log of molar concentration
- Growth inhibition (GI50) (HS 578T): −5.2 log of molar concentration
